This test concerns the target T1, human SARM1(50-724) (Homo sapiens, UniProt Q6SZW1).
T1 construct: 40 nM human SARM1(50-724)
T1 sequence (Q6SZW1 50-724): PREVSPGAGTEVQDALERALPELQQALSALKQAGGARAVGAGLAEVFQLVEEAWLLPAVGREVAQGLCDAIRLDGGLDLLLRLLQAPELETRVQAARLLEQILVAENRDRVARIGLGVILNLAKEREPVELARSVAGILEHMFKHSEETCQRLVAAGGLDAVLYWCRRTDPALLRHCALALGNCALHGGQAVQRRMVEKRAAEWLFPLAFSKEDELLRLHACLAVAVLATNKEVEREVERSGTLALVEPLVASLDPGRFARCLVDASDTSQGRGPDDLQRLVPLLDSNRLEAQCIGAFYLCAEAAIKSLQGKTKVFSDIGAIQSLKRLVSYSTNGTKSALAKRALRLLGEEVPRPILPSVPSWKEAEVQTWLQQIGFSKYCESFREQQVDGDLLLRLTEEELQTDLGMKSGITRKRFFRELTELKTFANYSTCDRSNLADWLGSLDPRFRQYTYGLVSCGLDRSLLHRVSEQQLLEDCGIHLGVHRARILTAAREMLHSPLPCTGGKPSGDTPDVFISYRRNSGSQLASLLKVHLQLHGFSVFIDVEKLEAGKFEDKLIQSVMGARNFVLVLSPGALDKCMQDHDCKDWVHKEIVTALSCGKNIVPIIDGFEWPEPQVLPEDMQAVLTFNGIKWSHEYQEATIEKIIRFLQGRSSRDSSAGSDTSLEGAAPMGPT
The test is described as follows: SARM1 NADase biochemical assay (HPLC of NAD and NAM). Conditions: 40 nM human SARM1(50-724), 0.3 mM NMN, 20 μM NAD, 60 minutes room temperature; dose-response from 100 μM, 1:3 dilution. As for the experimental part:
Each reaction was run at a volume of 20 μL containing 50 μM compound (dissolved in DMSO; final concentration of DMSO is 1% v/v), 40 nM human SARM1(50-724), 0.3 mM NMN, 20 μM NAD, 1 mM TCEP, 25 mM HEPES pH 7.4, 10 mM KCl and 10 mM MgCl2. The reaction was incubated at room temperature for 60 minutes and quenched with 20 μL of 0.4% formic acid. The samples were run on Agilent HPLC 1260 Infinity II with Synergi 2.5 μM Fusion-RP 100 Å (100×3.0 mm) LC column from Phenomenex. Total run time for each sample was 4 minutes. The run was isocratic with 1.5% methanol in 40 mM ammonium acetate pH 6.0. Samples were run at a flow rate of 0.8 mL/min at 55° C. Peak areas of NAD and NAM were determined using OpenLAB CDS (Chem Station edition) software. For dose-response, the compound was diluted serially 1:3 in DMSO and added to the reaction starting at a final compound concentration of 100 μM in 1% DMSO.

36 compounds from US12404265B2, “Substituted pyridine derivatives as SARM1 inhibitors” (Nura Bio, Inc., priority 2020, dated 2025) can be followed below.

The structures appear in SMILES notation. A value given as a limit tells only on which side of the number the result lay.

A word on the IC50: it is the point on the concentration scale where inhibition reaches its midpoint. In the case of `O=C(CCc1cc(F)c(F)c(F)c1)Nc1[nH]nc(-c2ccncc2)c1Cl` [Example 167, N-(4-Chloro-3-(pyridin-4-yl)-1H-pyrazol-5-yl)-3-(3,4,5-trifluorophenyl)propanamide], the IC50 was less than 1000 nM. For the compound `Cc1c(-c2ccncc2)n[nH]c1NC(=O)NCc1ccc(Cl)cc1` [Example 161, 1-(4-Chlorobenzyl)-3-(4-methyl-3-(pyridin-4-yl)-1H-pyrazol-5-yl)urea], the IC50 was less than 1000 nM. On to `O=C(CCc1cc(F)c(Cl)c(F)c1)Nc1[nH]nc(-c2ccncc2)c1CO` [Example 117, 3-(4-Chloro-3,5-difluorophenyl)-N-(4-(hydroxymethyl)-3-(pyridin-4-yl)-1H-pyrazol-5-yl)propanamide], for which the IC50 is less than 1000 nM. To `Cc1c(NC(=S)CCc2ccc(Cl)cc2)cnn1-c1ccncc1` [Example 137, 3-(4-Chlorophenyl)-N-(5-methyl-1-(pyridin-4-yl)-1H-pyrazol-4-yl)propanethioamide] belongs 1000 to 10000 nM. Turning to `O=C(CCc1ccc(Cl)cc1)Nc1cc(-c2ccncc2)n[nH]1` [Example 98, 3-(4-Chlorophenyl)-N-(3-(pyridin-4-yl)-1H-pyrazol-5-yl)propanamide], the IC50 is less than 1000 nM. For the compound `Cc1c(-c2ccncc2)n[nH]c1NC(=O)CCc1ccc(F)cc1F` [Example 45, 3-(2,4-Difluorophenyl)-N-(4-methyl-3-(pyridin-4-yl)-1H-pyrazol-5-yl)propanamide], the IC50 was less than 1000 nM.

For `Cc1c(-c2ccncc2)n[nH]c1N(C(=O)CCc1ccc(Cl)cc1)C(=O)CCc1ccc(Cl)cc1` [Example 3, 3-(4-Chlorophenyl)-N-(3-(4-chlorophenyl)propanoyl)-N-(4-methyl-3-(pyridin-4-yl)-1H-pyrazol-5-yl)propanamide], the IC50 is less than 1000 nM. As to `N#Cc1c(F)cc(CCC(=O)Nc2[nH]nc(-c3ccncc3)c2Cl)cc1F` [Example 128], the IC50 is less than 1000 nM. On to `N#Cc1ccc(CCC(=O)Nc2cc(-c3ccncc3)n[nH]2)cc1F` [Example 103], for which the IC50 is less than 1000 nM. For `CCc1c(-c2ccncc2)n[nH]c1NC(=O)CCc1ccc(Cl)cc1` [Example 14, 3-(4-Chlorophenyl)-N-(4-ethyl-3-(pyridin-4-yl)-1H-pyrazol-5-yl)propanamide], the IC50 is less than 1000 nM. Consider `CCC(=O)N(C(=O)CCc1ccc(Cl)cc1)c1[nH]nc(-c2ccncc2)c1C` [Example 2, 3-(4-Chlorophenyl)-N-(4-methyl-3-(pyridin-4-yl)-1H-pyrazol-5-yl)-N-propionylproanamide], for which the IC50 fell in the range of 1000 to 10000 nM. Turning to `Cc1c(NC(=O)OCc2ccc(Cl)s2)cnn1-c1ccncc1` [Example 149, (5-Chlorothiophen-2-yl)methyl (5-methyl-1-(pyridin-4-yl)-1H-pyrazol-4-yl)carbamate], the IC50 lay within 1000 to 10000 nM. For the compound `Cc1cnccc1-n1cc(NC(=O)CCc2ccc(Cl)cc2)cn1` [Example 109, 3-(4-Chlorophenyl)-N-(1-(3-methylpyridin-4-yl)-1H-pyrazol-4-yl)propanamide], the IC50 fell in the range of 1000 to 10000 nM. The same measure for `O=C(CCc1cc(F)c(F)c(F)c1)Nc1cc(-c2ccncc2)n[nH]1` [Example 102, N-(3-(Pyridin-4-yl)-1H-pyrazol-5-yl)-3-(3,4,5-trifluorophenyl)propanamide]: less than 1000 nM; for `Cc1c(-c2ccncc2)n[nH]c1NC(=O)CCc1ncc(Cl)s1` [Example 76]: 1000 to 10000 nM. To `Cc1c(-c2ccncc2)n[nH]c1NC(=O)CC1CCCc2cc(Cl)ccc21` (stereo not drawn) [Example 68, 2-(6-Chloro-1,2,3,4-tetrahydronaphthalen-1-yl)-N-[4-methyl-3-(pyridin-4-yl)-1H-pyrazol-5-yl]acetamide] belongs 1000 to 10000 nM; to `Cc1nn(-c2ccncc2)cc1NC(=O)CCc1ccc(Cl)cc1` [Example 107], 1000 to 10000 nM. For the compound `Cc1c(-c2ccncc2)n[nH]c1NC(=O)CCc1ccc(Cl)nc1` [Example 38, 3-(6-Chloropyridin-3-yl)-N-(4-methyl-3-(pyridin-4-yl)-1H-pyrazol-5-yl)propanamide], the IC50 is less than 1000 nM.

In the case of `O=C(CCc1ccc(Cl)cc1)Nc1[nH]nc(-c2ccncc2)c1Cl` [Example 96, N-(4-Chloro-3-(pyridin-4-yl)-1H-pyrazol-5-yl)-3-(4-chlorophenyl)propanamide], the half-inhibitory concentration (IC50) is less than 1000 nM. As to `Cc1c(-c2ccncc2)n[nH]c1NC(=O)CCc1cccc(Cl)c1` [Example 30, 3-(3-Chlorophenyl)-N-(4-methyl-3-(pyridin-4-yl)-1H-pyrazol-5-yl)propanamide], the IC50 is less than 1000 nM. As for `O=C(CCc1cc(F)c(Cl)c(F)c1)Nc1cc(-c2ccncc2)n[nH]1` [Example 101, 3-(4-Chloro-3,5-difluorophenyl)-N-(3-(pyridin-4-yl)-1H-pyrazol-5-yl)propanamide], the IC50 is less than 1000 nM. Consider `Cc1c(-c2ccncc2)n[nH]c1NC(=O)CCn1cc(Cl)cn1` [Example 77, 3-(4-Chloro-1H-pyrazol-1-yl)-N-(4-methyl-3-(pyridin-4-yl)-1H-pyrazol-5-yl)propenamide], for which the IC50 was in the range of 1000 to 10000 nM. With `Cc1c(-c2ccncc2)n[nH]c1NC(=O)C#Cc1ccc(Cl)cc1` [Example 72, 3-(4-Chlorophenyl)-N-(4-methyl-3-(pyridin-4-yl)-1H-pyrazol-5-yl)propiolamide], the IC50 was 1000 to 10000 nM.

As to `Cc1cnccc1-c1cc(NC(=O)CCc2ccc(Cl)cc2)[nH]n1` [Example 106, 3-(4-Chlorophenyl)-N-(3-(3-methylpyridin-4-yl)-1H-pyrazol-5-yl)propanamide], the IC50 was less than 1000 nM.

As for `COc1cnccc1-c1cc(NC(=O)CCc2ccc(Cl)cc2)[nH]n1` [Example 169, 3-(4-Chlorophenyl)-N-(3-(3-methoxypyridin-4-yl)-1H-pyrazol-5-yl)propanamide], the concentration for half-maximal inhibition (IC50) lay within 1000 to 10000 nM. For the compound `Cc1c(-c2ccncc2)n[nH]c1NC(=O)OCc1ccc(Cl)cc1` [Example 130, 4-Chlorobenzyl (4-methyl-3-(pyridin-4-yl)-1H-pyrazol-5-yl)carbamate], the IC50 was less than 1000 nM. As for `Cc1c(-c2ccncc2)n[nH]c1NC(=O)CCc1ccc(F)c(F)c1F` [Example 51, N-(4-Methyl-3-(pyridin-4-yl)-1H-pyrazol-5-yl)-3-(2,3,4-trifluorophenyl)propanamide], the concentration for half-maximal inhibition (IC50) is less than 1000 nM. As to `O=C(CCc1cccc(Cl)c1)Nc1cc(-c2ccncc2)n[nH]1` [Example 100, 3-(3-Chlorophenyl)-N-(3-(pyridin-4-yl)-1H-pyrazol-5-yl)propanamide], the IC50 is 1000 to 10000 nM. For `O=C1CC(c2ccc(Cl)cc2)CC(=O)N1c1cc(-c2ccncc2)n[nH]1` (racemic) [Example 155, (rac)-4-(4-Chlorophenyl)-1-(3-(pyridin-4-yl)-1H-pyrazol-5-yl)piperidine-2,6-dione], the IC50 is less than 1000 nM. To `O=C(CCc1ccc(Cl)cc1)Nc1[nH]nc(-c2ccncc2)c1C(F)(F)F` [Example 125, 3-(4-Chlorophenyl)-N-[3-(pyridin-4-yl)-4-(trifluoromethyl)-1H-pyrazol-5-yl]propanamide] belongs less than 1000 nM; to `Cc1ccc(CCC(=O)Nc2[nH]nc(-c3ccncc3)c2C)cc1` [Example 24, N-(4-Methyl-3-(pyridin-4-yl)-1H-pyrazol-5-yl)-3-(p-tolyl)propanamide], less than 1000 nM; to `Cc1c(-c2ccncc2)n[nH]c1NC(=O)/C(F)=C(\F)c1ccc(Cl)cc1` [Example 69, (E)-3-(4-chlorophenyl)-2,3-difluoro-N-(4-methyl-3-(pyridin-4-yl)-1H-pyrazol-5-yl)acrylamide], 1000 to 10000 nM. To `O=C(CCc1ccc(Cl)cc1)Nc1cnn(-c2ccncc2)c1C(F)(F)F` [Example 95, 3-(4-Chlorophenyl)-N-(1-(pyridin-4-yl)-5-(trifluoromethyl)-1H-pyrazol-4-yl)propanamide] belongs less than 1000 nM; to `Cc1c(NC(=O)CCc2ccc(Cl)cc2)cnn1-c1ccncc1` [Example 86], less than 1000 nM. Take `Cc1c(-c2ccncc2)n[nH]c1NC(=O)CC1CCCc2ccccc21` (stereo not drawn) [Example 66, N-[4-Methyl-3-(pyridin-4-yl)-1H-pyrazol-5-yl]-2-(1,2,3,4-tetrahydronaphthalen-1-yl)acetamide]: the IC50 lay within 1000 to 10000 nM.

Consider `Cc1cnccc1-c1n[nH]c(NC(=O)CCc2ccc(C#N)c(F)c2)c1C` [Example 112, 3-(4-Cyano-3-fluorophenyl)-N-(4-methyl-3-(3-methylpyridin-4-yl)-1H-pyrazol-5-yl)propanamide], for which the IC50 lay in the range of 1000 to 10000 nM.
